Patent US20100285959A1, “HERBICIDAL MIXTURES” (priority 2006, published 2010)

Tests used:
corn (ZEAMD) [1] = test: Test 1 field trial, preemergence; assay type: in vivo, Zea mays ssp. indentata; details: hybrid Pioneer 34N43, corn (Zea mays ssp. indentata), in vivo
Description: Corn seeds (hybrid ‘Pioneer 34N43’) were planted in mid spring season, 3.8 cm deep in a silt loam soil having 4.6% organic matter and a pH of 6. Plots were 10.7 m long by 1.5 m wide with rows spaced 76 cm apart. Seeds were spaced 18 cm apart within the rows. The field was managed using conventional tillage practices. […] Results are summarized in Table 1 and are the means of the three replicates. […] Colby's Equation (Colby, S. R. “Calculating Synergistic and Antagonistic Responses of Herbicide Combinations,” Weeds, 15(1), pp 20-22 (1967)) calculates the expected additive effect of herbicidal mixtures, and for two active ingredients is of the form:
Pa+b=Pa+Pb−(PaPb/100) • wherein Pa+b is the percentage effect of the mixture expected from additive contribution of the individual components, • Pa is the observed percentage effect of the first active ingredient at the same use rate as in the mixture, and • Pb is the observed percentage effect of the second active ingredient at the same use rate as in the mixture.

corn (ZEAMD) [2] = test: Test 5 field trial, postemergence; assay type: in vivo, Zea mays ssp. indentata; details: hybrid Pioneer 38H69, corn (Zea mays ssp. indentata), in vivo
Description: (§1) Corn seeds (hybrid ‘Pioneer 38H69’) were planted in mid spring season, 5.1 cm deep in a silty clay loam soil having 3% organic matter and a pH of 6.5. Plots were 9.1 m long by 3.0 m wide with rows spaced 76 cm apart. The field was managed using conventional tillage practices. […] All treatments included a surfactant except glufosinate treatments, both alone and in combination. […] Results are summarized in Table 5 and are the means of the three replicates.

shepherd's purse (CAPBP) = test: Test 5 field trial, postemergence; assay type: in vivo, Capsella bursa-pastoris
Description: as §1

giant foxtail (SETFA) [3] = test: Test 5 field trial, postemergence; assay type: in vivo, Setaria faberi
Description: as §1

field pennycress (THLAR) = test: Test 5 field trial, postemergence; assay type: in vivo, Thlaspi arvense
Description: as §1

[4] = system: Pennsylvania smartweed (POLPY); test: Test 6 field trial, postemergence; assay type: in vivo, Polygonum pensylvanicum
Description: Corn seeds (hybrid ‘Pioneer 35Y62’) were planted in mid spring season, 3.8 cm deep in a silt loam soil having 4% organic matter and a pH of 5.8. Plots were 10.7 m long by 1.5 m wide with rows spaced 76 cm apart. Seeds were spaced 18 cm apart within the rows. The field was managed using conventional tillage practices. […] All treatments included a surfactant except glufosinate treatments, both alone and in combination. […] Results are summarized in Table 6 and are the means of the three replicates.

velvetleaf (ABUTH) = test: Test 8 field trial, preemergence; assay type: in vivo, Abutilon theophrasti
Description: (§2) Corn seeds (hybrid ‘Pioneer 31G96’) were planted in mid spring season, 3.8 cm deep in a clay loam soil having 2% organic matter and a pH of 6.6. Plots were 6.1 m long by 3.0 m wide with rows spaced 76 cm apart. Seeds were spaced 15 cm apart within the rows. The field was managed using conventional tillage practices. […] A few of the weed species could not be evaluated at every timing. […] Results are the means of the three replicates.

common ragweed (AMBEL) [5] = test: Test 8 field trial, preemergence; assay type: in vivo, Ambrosia artemisiifolia
Description: as §2

[6] = system: ivyleaf morningglory (IPOHE); test: Test 8 field trial, preemergence; assay type: in vivo, Ipomoea hederacea
Description: as §2

[7] = system: Pennsylvania smartweed (POLPY); test: Test 8 field trial, preemergence; assay type: in vivo, Polygonum pensylvanicum
Description: as §2

giant foxtail (SETFA) [8] = test: Test 8 field trial, preemergence; assay type: in vivo, Setaria faberi
Description: as §2

common ragweed (AMBEL) [9] = test: Test 10 field trial, preemergence; assay type: in vivo, Ambrosia artemisiifolia; details: 28 DAA
Description: (§3) Corn seeds (hybrid ‘Pioneer 33P65 RR’) were planted in mid spring season, 2.5 cm deep in a silt loam soil. Plots were 9.1 m long by 3.0 m wide with rows spaced 76 cm apart. The field was managed using conventional tillage practices. […] Results are the means of the three replicates.

common cocklebur (XANST) = test: Test 10 field trial, preemergence; assay type: in vivo, Xanthium strumarium ssp. strumarium; details: 28 DAA
Description: as §3

common blackjack (BIDPI) = test: Test 11 field trial, preemergence; assay type: in vivo, Bidens pilosa; set-up: scale not given here; details: alone or + atrazine 1500 or metolachlor 2500
Description: Corn seeds (hybrid ‘Pioneer 3041’) were planted in mid spring season, 5 cm deep in a clay soil having 2.6% organic matter and a pH of 5.6. Plots were 8 m long by 1.5 m wide with rows spaced 80 cm apart. Seeds were spaced 15 cm apart within the rows. The field was managed using conventional tillage practices. […] Treatments consisted of Compound 2 or
Goosegrass was not evaluated 16 or 91 days after application.

[10] = 16 DAA, Cpd 2 30 g a.i./ha alone or with glufosinate 470 or glyphosate 1120
[11] = 16 DAA, Cpd 2 60 g a.i./ha alone or with atrazine 1120, glufosinate 470 or glyphosate 1120
[12] = 31 DAA, Cpd 2 30 g a.i./ha alone or with glufosinate 470 or glyphosate 1120
[13] = 31 DAA, Cpd 2 60 g a.i./ha alone or with atrazine 1120, glufosinate 470 or glyphosate 1120
[14] = 19 DAA, g a.i./ha: Cpd 2 50, S-Metolachlor 1870
[15] = 19 DAA, g a.i./ha: Cpd 2 100, Atrazine 1680, S-Metolachlor 1870
[16] = 19 DAA, g a.i./ha: Cpd 2 150, S-Metolachlor 1870
[17] = 29 DAA, g a.i./ha: Cpd 2 50, S-Metolachlor 1870
[18] = 29 DAA, g a.i./ha: Cpd 2 100, Atrazine 1680, S-Metolachlor 1870
[19] = 29 DAA, g a.i./ha: Cpd 2 150, S-Metolachlor 1870
[20] = 56 DAA, g a.i./ha: Cpd 2 50, S-Metolachlor 1870
[21] = 56 DAA, g a.i./ha: Cpd 2 100, Atrazine 1680, S-Metolachlor 1870
[22] = 56 DAA, g a.i./ha: Cpd 2 150, S-Metolachlor 1870
[23] = g a.i./ha: Cpd 2 50, S-Metolachlor 1870
[24] = g a.i./ha: Cpd 2 100, Atrazine 1680, S-Metolachlor 1870
[25] = g a.i./ha: Cpd 2 150, S-Metolachlor 1870

COC(=O)c1nc(C2CC2)nc(N)c1Cl [Compound 2, methyl 6-amino-5-chloro-2-cyclopropyl-4-pyrimidinecarboxylate]
ZEAMD Obs (corn (ZEAMD) [1]; 28 days after application): 0
ZEAMD Obs (corn (ZEAMD) [1]; 56 days after application): 0
ZEAMD Obs (corn (ZEAMD) [2]; 16 days after application): 0%
ZEAMD Obs (corn (ZEAMD) [2]; 31 days after application): 0%
CAPBP Obs (shepherd's purse (CAPBP); [10]): 25%
CAPBP Obs (shepherd's purse (CAPBP); [11]): 28%
CAPBP Obs (shepherd's purse (CAPBP); [12]): 0%
CAPBP Obs (shepherd's purse (CAPBP); [13]): 2%
SETFA Obs (giant foxtail (SETFA) [3]; [10]): 0%
SETFA Obs (giant foxtail (SETFA) [3]; [11]): 0%
SETFA Obs (giant foxtail (SETFA) [3]; [12]): 0%
SETFA Obs (giant foxtail (SETFA) [3]; [13]): 2%
THLAR Obs (field pennycress (THLAR); [10]): 37%
THLAR Obs (field pennycress (THLAR); [11]): 42%
THLAR Obs (field pennycress (THLAR); [12]): 0%
THLAR Obs (field pennycress (THLAR); [13]): 2%
POLPY Obs ([4]; 14 DAA, 30 g a.i./ha): 20%
POLPY Obs ([4]; 14 DAA, 60 g a.i./ha): 40%
POLPY Obs ([4]; 28 DAA, 30 g a.i./ha): 20%
POLPY Obs ([4]; 28 DAA, 60 g a.i./ha): 40%
ABUTH Obs (velvetleaf (ABUTH); [14]): 28%
ABUTH Obs (velvetleaf (ABUTH); [15]): 45%
ABUTH Obs (velvetleaf (ABUTH); [16]): 58%
ABUTH Obs (velvetleaf (ABUTH); [17]): 43%
ABUTH Obs (velvetleaf (ABUTH); [18]): 68%
ABUTH Obs (velvetleaf (ABUTH); [19]): 90%
ABUTH Obs (velvetleaf (ABUTH); [20]): 18%
ABUTH Obs (velvetleaf (ABUTH); [21]): 60%
ABUTH Obs (velvetleaf (ABUTH); [22]): 85%
AMBEL Obs (common ragweed (AMBEL) [5]; [14]): 36%
AMBEL Obs (common ragweed (AMBEL) [5]; [15]): 73%
AMBEL Obs (common ragweed (AMBEL) [5]; [16]): 83%
AMBEL Obs (common ragweed (AMBEL) [5]; [17]): 65%
AMBEL Obs (common ragweed (AMBEL) [5]; [18]): 88%
AMBEL Obs (common ragweed (AMBEL) [5]; [19]): 96%
AMBEL Obs (common ragweed (AMBEL) [5]; [20]): 52%
AMBEL Obs (common ragweed (AMBEL) [5]; [21]): 90%
AMBEL Obs (common ragweed (AMBEL) [5]; [22]): 97%
IPOHE Obs [6, 14]: 58%
IPOHE Obs [6, 15]: 78%
IPOHE Obs [6, 16]: 83%
IPOHE Obs [6, 17]: 72%
IPOHE Obs [6, 18]: 97%
IPOHE Obs [6, 19]: 96%
IPOHE Obs [6, 20]: 82%
IPOHE Obs [6, 21]: 100%
IPOHE Obs [6, 22]: 100%
POLPY Obs ([7]; 19 DAA, g a.i./ha: Cpd 2 50): 28%
POLPY Obs ([7]; 19 DAA, g a.i./ha: Cpd 2 100): 60%
POLPY Obs ([7]; 19 DAA, g a.i./ha: Cpd 2 150): 65%
POLPY Obs [7, 17]: 30%
POLPY Obs [7, 18]: 50%
POLPY Obs [7, 19]: 70%
POLPY Obs ([7]; 56 DAA, g a.i./ha: Cpd 2 50): 55%
POLPY Obs ([7]; 56 DAA, g a.i./ha: Cpd 2 100, Atrazine 1680): 75%
POLPY Obs ([7]; 56 DAA, g a.i./ha: Cpd 2 150): 95%
SETFA Obs (giant foxtail (SETFA) [8]; [14]): 33%
SETFA Obs (giant foxtail (SETFA) [8]; [15]): 40%
SETFA Obs (giant foxtail (SETFA) [8]; [16]): 43%
SETFA Obs (giant foxtail (SETFA) [8]; [17]): 32%
SETFA Obs (giant foxtail (SETFA) [8]; [18]): 42%
SETFA Obs (giant foxtail (SETFA) [8]; [19]): 47%
SETFA Obs (giant foxtail (SETFA) [8]; [20]): 8%
SETFA Obs (giant foxtail (SETFA) [8]; [21]): 7%
SETFA Obs (giant foxtail (SETFA) [8]; [22]): 17%
AMBEL Obs (common ragweed (AMBEL) [9]; [23]): 5%
AMBEL Obs (common ragweed (AMBEL) [9]; [24]): 5%
AMBEL Obs (common ragweed (AMBEL) [9]; [25]): 20%
XANST Obs (common cocklebur (XANST); [23]): 10%
XANST Obs (common cocklebur (XANST); [24]): 7%
XANST Obs (common cocklebur (XANST); [25]): 27%
BIDPI Obs (common blackjack (BIDPI); 16 DAA, Cpd 2/Cpd 1 at 62 g a.i./ha): 20
BIDPI Obs (common blackjack (BIDPI); 16 DAA, Cpd 2/Cpd 1 at 125 g a.i./ha): 60
BIDPI Obs (common blackjack (BIDPI); 30 DAA, Cpd 2/Cpd 1 at 62 g a.i./ha): 20
BIDPI Obs (common blackjack (BIDPI); 30 DAA, Cpd 2/Cpd 1 at 125 g a.i./ha): 40
BIDPI Obs (common blackjack (BIDPI); 44 DAA, Cpd 2/Cpd 1 at 62 g a.i./ha): 20
BIDPI Obs (common blackjack (BIDPI); 44 DAA, Cpd 2/Cpd 1 at 125 g a.i./ha): 60
BIDPI Obs (common blackjack (BIDPI); 62 DAA, Cpd 2/Cpd 1 at 62 g a.i./ha): 0
BIDPI Obs (common blackjack (BIDPI); 62 DAA, Cpd 2/Cpd 1 at 125 g a.i./ha): 40
BIDPI Obs (common blackjack (BIDPI); 91 DAA, Cpd 2/Cpd 1 at 62 g a.i./ha): 0
BIDPI Obs (common blackjack (BIDPI); 91 DAA, Cpd 2/Cpd 1 at 125 g a.i./ha): 40
